Source: patent US20180296630A1, “METHODS AND COMPOSITIONS FOR PREVENTING OR TREATING OPHTHALMIC CONDITIONS” (Stealth BioTherapeutics Corp, priority 2012, published 2018)

Columns and labels:
GTM cells = assay: Intracellular ROS production, acute H2O2 injury, FACS, GTM cells; type: cell-based, human; conditions: n=3
Description: (§1) The percentage of intracellular ROS production compared to GTM control in GTM H2O2, D-Arg-2′,6′-Dmt-Lys-Phe-NH2 10^−6M, D-Arg-2′,6′-Dmt-Lys-Phe-NH2 10^−7M, D-Arg-2′,6′-Dmt-Lys-Phe-NH2 10^−8M groups were 146.0±2.27%, 84.5±8.75%, 102.0±5.69%, 133.0±5.17% respectively (n=3); the HTM groups were 153.0±3.46%, 79±2.39%, 91.8±3.49%, 129.0±8.24% respectively (n=4). P<0.001 GTM and HTM H2O2 Group compared to control; *** means P<0.001 compared to GTM H2O2 group; ▴ ▴ ▴ Means P<0.001 compared to HTM H2O2 group; ▴ ▴ means P<0.01 compared to HTM H2O2 group.

HTM cells = assay: Intracellular ROS production, acute H2O2 injury, FACS, HTM cells; type: cell-based, human; conditions: n=4
Description: as §1

CNV mouse model = assay: Laser-induced choroidal neovascularization (CNV) mouse model; type: in vivo, C57BL/6 male mice; conditions: one week after laser
Description: CNV were induced in the eye with laser burns. Methods useful in the present studies have been described by Reich, Mol Vis 2003; 9:210-216.
Briefly, five to six-week-old C57BL/6 male mice were anesthetized with chloral hydrate and the pupils were dilated with tropicamide. With a coverslip used as a contact lens, four laser spots (532 nm, 260 mw, 0.01 s, 50 μm; Novus Spectra, Lumenis, USA) were applied to the fundus in a circle around the optic disc in the right eye. Daily intraperitoneal injections of 1 mg/kg, 9 mg/kg D-Arg-2′,6′-Dmt-Lys-Phe-NH2 (D-Arg-2′,6′-Dmt-Lys-Phe-NH2) or vehicle were started the day prior to laser photocoagulation.
After one week, mice were deeply anaesthetized and perfused through the left ventricle with 1 ml (50 mg/ml) of PB S-buffered fluorescein-dextran. Eyes were enucleated and fixed in 4% paraformaldehyde for 2 h. The eyes were sectioned at the equator, and the anterior half and retina were removed. The posterior eye segment containing the sclera and choroid was dissected into quarters by four to five radial cuts and mounted on a slide. All flatmounts were examined by a fluorescence microscope (AxioCam MRC; Carl Zeiss). […]
There were 48 locations of neovascularization in each group. The area of neovascularization was calculated using IMAGE-PROPLUS6.0 software. […]

iHTM cells = assay: ROS production, sustained oxidative injury by H2O2, iHTM cells; type: cell-based, human; conditions: then 200 μM H2O2 24 h
Procedure: The effects of D-Arg-2′,6′-Dmt-Lys-Phe-NH2 on sustained oxidative injury of GTM and HTM cells was examined. Cells were pre-treated with 10^−6, 10^−7, 10^−8M of D-Arg-2′,6′-Dmt-Lys-Phe-NH2 for 1 h, and then incubated with 200 μM H2O2 for 24 h to investigate the protective effect of D-Arg-2′,6′-Dmt-Lys-Phe-NH2 in sustained oxidative stress.

D-Arg-2′,6′-Dmt-Lys-Phe-NH2
percentage of intracellular ROS production compared to GTM control (GTM cells; 10^−6M): 84.5±8.75% | percentage of intracellular ROS production compared to GTM control (GTM cells; 10^−7M): 102.0±5.69% | percentage of intracellular ROS production compared to GTM control (GTM cells; 10^−8M): 133.0±5.17% | percentage of intracellular ROS production compared to control (HTM cells; 10^−6M): 79±2.39% | percentage of intracellular ROS production compared to control (HTM cells; 10^−7M): 91.8±3.49% | percentage of intracellular ROS production compared to control (HTM cells; 10^−8M): 129.0±8.24% | area of neovascularization (CNV mouse model; 1 mg/kg daily intraperitoneal): 0.0068±0.0025 | area of neovascularization (CNV mouse model; 9 mg/kg daily intraperitoneal): 0.0067±0 | ROS Production (iHTM cells; 0.01 μM pre-treatment 1 h): 114.30 ± 3.89 % | ROS Production (iHTM cells; 0.1 μM pre-treatment 1 h): 82.89 ± 3.70 % | ROS Production (iHTM cells; 1 μM pre-treatment 1 h): 36.91 ± 1.47 %
